Data reported in US12589103B2, “Antimicrobial and antiviral effects of C2-C7 alkyl boronic acids” (CORNELL UNIVERSITY, priority 2019, dated 2026).
“Also recorded” adds a separate entry of the source.

Legend:
Feline Lung cells = experiment: Cytotoxicity in FIPV infected Feline Lung cells
Listeria monocytogenes = experiment: Bacterial growth panel, Listeria; assay type: cell-based
Protocol: The control sample contained 40 mM NaCl.
Growth of bacteria with or without addition of C2-C8 C10, and C12 alkyl boronic acids, BA, or FMPBA was monitored by readings at OD600. […] The area under the curve (“AUC”) of the growth curve was calculated and the results were expressed as AUC+test compound:AUC−test compound.

[1] = system: enteric pathogens (E. coli, Salmonella, Listeria monocytogenes, Klebsiella); experiment: Bacterial growth panel, OD600 growth-curve AUC ratio (heat map); assay type: cell-based; details: for antibacterial activity / potency against enteric pathogens (growth, AUC+test compound:AUC−test compound): 40 mM (BA, EBA, PBA), 20 mM (BBA), 10 mM (PeBA), 5 mM (HBA, SBA), 1 mM (OBA), 0.5 mM (DBA), 2 mM (DoDBA), 20 mM (FMPBA), 24-48 hrs; for selectivity for Gram Negative enteropathogens: growth panel
[2] = system: Feline Infectious Peritonitis Virus (FIPV) Black (TN-406); experiment: FIPV replication and syncytium formation, immunofluorescence; assay type: cell-based, Feline Coronavirus type I; details: 10, 20, 30, 40 mM; Feline Lung cells, 18 h post-infection
[3] = system: Gram Positive aerobes and probiotic species (Lactobacillus, Bifidobacteria); experiment: Bacterial growth panel, impact on non-target species (selectivity); assay type: cell-based; details: for selectivity against Probiotic spp: compared with BA
FIPV = details: known drugs; cited from earlier work
Henle-407 cells = details: higher concentrations
[4] = system: probiotic Lactobacillus spp; experiment: Growth of probiotic Lactobacillus strains; details: three Lactobacillus strains
[5] = system: AIEC and cancer associated E. coli; experiment: Soft agar motility assay, E. coli; assay type: cell-based; details: 10 h, AIEC NC101, 541-1, cancer associated E. coli
Protocol: The ability of ABA C1-3 and BA to impact the motility of E. coli and Salmonella was evaluated using sloppy agar treated with and without BA and C1-C3 alkyl boronic acids. Motility is strongly linked to the virulence phenotype of these bacterial strains. E. coli was grown overnight at 37° C. in LB broth. Soft agar plates (1% tryptone, 0.5% NaCl, 0.25% agar) were prepared the day before the assay was carried out. Sterile NaCl (control), boric or boronic acid stock solution was added into the agar right before pouring the plates. The overnight cultures of E. coli were transferred (3 μl) on to the center of each plate, followed by incubation of the plates at 37° C. for 10 h. E. coli motility was quantified by measuring the diameter of the circular swarming area formed by the growing motile bacteria.

CCCCB(O)O [BBA, butyl boronic acid]
cytotoxicity in antiviral assay (Feline Lung cells): Cytotoxicity was observed | selectivity of activity against Listeria monocytogenes (Listeria monocytogenes): selectivity apparent | antibacterial activity / potency against enteric pathogens (growth, AUC+test compound:AUC−test compound) [1]: high potency vs enteropathogens while somewhat sparing probiotic species | selectivity for Gram Negative enteropathogens [1]: highest | replication and syncytium formation of FIPV [2]: inhibited replication and syncytium formation of FIPV in infected cells; also recorded: antiviral activity was observed at lower doses without cytotoxicity | selectivity against Probiotic spp [3]: more selective than BA

CCCCCCCCCCB(O)O [DBA, decyl boronic acid, reference compound]
antibacterial activity / potency against enteric pathogens (growth, AUC+test compound:AUC−test compound) [1]: marked decrease in antibacterial activity | antibacterial activity / potency against enteric pathogens (growth, AUC+test compound:AUC−test compound) ([1]; listed as C10): much less potency than C2-C7 alkyl boronic acids

Cc1ccc(B(O)O)c(F)c1 [FMPBA, 2-fluro-4-methlyphenylboronic acid, reference compound]
antibacterial activity / potency against enteric pathogens (growth, AUC+test compound:AUC−test compound) [1]: more generalized and potent antibacterial activity than C2-C7 alkyl boronic acid compounds; also recorded: bacteriocidal | selectivity: impact on Gram Positive aerobes and probiotic species ([3]; same concentrations as growth panel): not selective and killed more Gram Positive aerobes and probiotic species than C2-C7 alkyl boronic acid compounds; also recorded: minimally selective

N#C[C@@]1(c2ccc3c(N)ncnn23)O[C@H](CO)[C@@H](O)[C@H]1O [GS-441524]
efficacy against FIPV (FIPV): some efficacy against FIPV

CCCCCCB(O)O [HBA, hexyl boronic acid]
cytotoxicity in antiviral assay (Feline Lung cells): Cytotoxicity was observed | selectivity of activity against Listeria monocytogenes (Listeria monocytogenes): selectivity apparent | antibacterial activity / potency against enteric pathogens (growth, AUC+test compound:AUC−test compound) [1]: high potency vs enteropathogens while somewhat sparing probiotic species | selectivity for Gram Negative enteropathogens [1]: highest | replication and syncytium formation of FIPV [2]: inhibited replication and syncytium formation of FIPV in infected cells; also recorded: antiviral activity was observed at lower doses without cytotoxicity | cytotoxicity in Henle cells (Henle-407 cells): cytotoxic at higher concentrations | selectivity against Probiotic spp [3]: more selective than BA

CB(O)O [MBA, methyl boronic acid, reference compound]
growth of probiotic Lactobacillus spp [4]: do not suppress growth | motility of E. coli [5]: had less impact

CCCCCCCCB(O)O [OBA, octyl boronic acid, reference compound]
antibacterial activity / potency against enteric pathogens (growth, AUC+test compound:AUC−test compound) [1]: marked decrease in antibacterial activity | antibacterial activity / potency against enteric pathogens (growth, AUC+test compound:AUC−test compound) ([1]; listed as ABA C8): much less potency than C2-C7 alkyl boronic acids

CCCCCB(O)O [PeBA, pentyl boronic acid]
cytotoxicity in Henle cells (Henle-407 cells): cytotoxic at higher concentrations

CCCCCCCB(O)O [SBA, heptyl boronic acid]
selectivity for Gram Negative enteropathogens [1]: highest
